# Assay results from patent US20250195659A1, “T CELL MANUFACTURING COMPOSITIONS AND METHODS” (BIONTECH US INC., priority 2021, published 2025).
# Tested on: antigen specific CD8^+ T cells
# Assay: IL-21 addition to NEO-STIM.RNA cultures
# Type: cell-based, human
# Source text: In order to improve the NEO-STIM protocol using RNA, IL-21 was explored as an addition to the protocol.
substance,measurement,setting,value
IL-21: cytokine added to the NEO-STIM RNA protocol,"hit rate, neoantigen specific frequency and cell expansion","NEO-PTC-01.RNA, healthy donor, day 14 read-out","increased hit rate, neoantigen specific frequency and cell expansion"
same,central memory phenotype in antigen specific CD8^+ T cells,NEO-STIM,increases central memory phenotype in antigen specific CD8^+ T cells
same,Tcm population,NEO-STIM.RNA,increases Tcm population in our NEO-STIM.RNA cultures
same,expansion of cultures,NEO-STIM.RNA,improves the expansion of NEO-STIM.RNA cultures
same,priming of specific T cells,NEO-STIM.RNA,improves the priming of specific T cells in NEO-STIM.RNA cultures
